We go through seven compounds from patent publication US20090137499A1, “BENZYLPHENYL GLUCOPYRANOSIDE DERIVATIVE” (priority 2006, published 2009).

For the assay, the target named is T1, human SGLT2 (Homo sapiens, UniProt P31639).
T1 construct: expressed in transfected cells
T1 sequence (P31639 1-672): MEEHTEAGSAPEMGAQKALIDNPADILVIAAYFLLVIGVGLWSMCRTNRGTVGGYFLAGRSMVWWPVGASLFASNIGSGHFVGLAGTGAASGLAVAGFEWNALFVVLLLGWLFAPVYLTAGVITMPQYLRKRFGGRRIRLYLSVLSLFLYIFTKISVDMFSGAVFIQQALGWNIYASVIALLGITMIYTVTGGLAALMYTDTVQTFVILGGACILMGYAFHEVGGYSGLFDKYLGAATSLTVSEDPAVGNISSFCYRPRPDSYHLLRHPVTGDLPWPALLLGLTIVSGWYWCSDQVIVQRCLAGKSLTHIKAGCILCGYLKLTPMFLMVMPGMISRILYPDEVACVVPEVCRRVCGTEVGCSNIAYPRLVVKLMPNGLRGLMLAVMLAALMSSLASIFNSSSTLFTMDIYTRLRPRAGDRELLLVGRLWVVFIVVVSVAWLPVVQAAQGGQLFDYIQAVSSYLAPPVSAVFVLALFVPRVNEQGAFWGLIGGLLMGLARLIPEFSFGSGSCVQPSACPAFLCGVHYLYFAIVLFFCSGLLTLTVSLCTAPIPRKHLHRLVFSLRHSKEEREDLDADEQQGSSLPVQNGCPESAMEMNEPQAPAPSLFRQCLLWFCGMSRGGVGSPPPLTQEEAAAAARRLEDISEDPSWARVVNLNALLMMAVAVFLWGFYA
Description: Determination of SGLT2 inhibiting activity using human SGLT2 expressing cell ([14C]-α-methyl-D-glucopyranoside uptake). The class given is cell-based. The settings on record: HEK-SGLT2 cells, 1 mM [14C]-α-methyl-D-glucopyranoside, 37° C., 30 min. The method, then:
Determination of SGLT2 Inhibiting Activity Using Human SGLT2 Expressing Cell
1) Preparation of Vector Expressing Human SGLT2 cDNA in Animal Cell
Amplification was performed by PCR using human SGLT2 cDNA clone (Origene: Clone Number, TC303267; GenBank accession number, NM 003041) as a template. The sense oligonucleotide primer for PCR was 5′-[…]-3′ (Primer 3: SEQ ID NO: 3 in the sequence listing),
and the antisense oligonucleotide primer was 5′-[…]-3′ (Primer 4: SEQ ID NO: 4 in the sequence listing). The PCR product was subjected to agarose electrophoresis, then a target DNA fragment was recovered from a single band corresponding to 2037 bases, digested with restriction enzymes HindIII and XhoI, and introduced into the HindIII/XhoI site of vector pCMV-Script (Stratagene) to obtain SGLT2 expressing plasmid pCMV-SGLT2. A HindIII/XhoI fragment was excised from pCMV-SGLT2 and introduced into the BamHI/XhoI site of pENTR1A (Gateway, Invitrogen) to prepare pENTR-SGLT2. Retrovirus vector pLPCX (Clontech) into which Gateway Vector Conversion System Cassette A (Invitrogen) was introduced was used as the destination plasmid to prepare SGLT2 expressing retrovirus vector pLPCX-SGLT2.
2) Establishment of Human SGLT2 Expressing Cell
The retrovirus pLPCX-SGLT2 obtained in 1) was transfected into integrin αvβ3 expressing HEK-293 cells, the cells were treated with antibiotic G418 (brand name, Geneticin: Invitrogen) and puromycin (Clontech) to obtain HEK-SGLT2 cells stably expressing the target vector having resistance. The stably expressing cells were cultured and maintained in DMEM medium containing […] G418, […] puromycin, 3 mM KGT-1075, and 10% FBS.
3) Determination of SGLT2 Inhibiting Activity
HEK-SGLT2 cells were suspended at a density of 10^6 cells/mL in DMEM medium containing 250 mg/mil G418, 1 mg/ml puromycin, and 10% FBS, and 100 μL was seeded in each well of a type 1 collagen-coated 96-well culture plate (Corning). On the following day, the medium was replaced with a sugar uptake buffer (10 mM HEPES [pH 7.5], 5 mM Tris-HCl [pH 7.5], 140 mM NaCl, 2 mM KCl, 1 mM CaCl2, 1 mM MgCl2), and the cells were cultured with 1 mM [^14C]-α-methyl-D-glucopyranoside (0.1 mCi) and a test compound at 37° C. for 30 min, and then washed 3 times with a washing buffer (10 mM HEPES (pH 7.5), 5 mM Tris-HCl (pH 7.5), 140 mM choline chloride, 2 mM KCl, 1 mM CaCl2, 1 mM MgCl2). 100 μL of liquid scintillation cocktail (brand name, Supermix: Perkin-Elmer) was added to each well of the 96-well plate and stirred for 10 min, and then radioactivity was determined with micro β (Perkin-Elmer), a type of liquid scintillation counter. The value obtained by deducting the radioactivity in the presence of an excess amount of an SGLT2 inhibiting compound as the background from each measured value was taken as the sugar uptake activity, the inhibition rate (%) was calculated from the control sugar uptake activity obtained without using a test compound and the sugar uptake activity obtained using a test compound having a predetermined concentration, and the concentrations of the test compound at which the sugar uptake activity was inhibited by 50% were assessed.

For `COc1ccc(Cc2c(Cl)cc(CO)cc2O[C@@H]2O[C@](C)(CO)[C@@H](O)[C@H](O)[C@H]2O)cc1` [Example 55, 3-Chloro-5-hydroxymethyl-2-(4-methoxybenzyl)phenyl 5-C-methyl-β-D-glucopyranoside], the half-maximal inhibitory concentration (IC50) came out at 10 nM. For the compound `COc1ccc(Cc2c(Cl)cc(CO)cc2O[C@@H]2O[C@H](CO)[C@@](C)(O)[C@H](O)[C@H]2O)cc1` [Example 56, 3-Chloro-5-hydroxymethyl-2-(4-methoxybenzyl)phenyl 4-C-methyl-β-D-glucopyranoside], the IC50 was 11 nM.

`COc1ccc(Cc2ccc(N)cc2O[C@@H]2O[C@H](CO)[C@@](C)(O)[C@H](O)[C@H]2O)cc1` [Example 64, 5-Amino-2-(4-methoxybenzyl)phenyl 4-C-methyl-β-D-glucopyranoside] had an IC50 of 13 nM. `COc1ccc(Cc2ccc(N)cc2O[C@@H]2O[C@H](CO)C[C@H](O)[C@H]2O)cc1` [Example 65, 5-Amino-2-(4-methoxybenzyl)phenyl 4-deoxy-β-D-glucopyranoside]: the IC50 stood at 20 nM. In turn, `COc1ccc(Cc2c(F)cc(CO)cc2O[C@@H]2O[C@H](CO)C[C@H](O)[C@H]2O)cc1` [Example 85, 3-Fluoro-5-hydroxymethyl-2-(4-methoxybenzyl)phenyl 4-deoxy-β-D-glucopyranoside] showed a half-maximal inhibitory concentration (IC50) of 20 nM.

The compound `COc1ccc(Cc2c(Cl)cc(CO)cc2O[C@@H]2O[C@H](CO)C[C@H](O)[C@H]2O)cc1` [Example 86, 3-Chloro-5-hydroxymethyl-2-(4-methoxybenzyl)phenyl 4-deoxy-β-D-glucopyranoside] came in with an IC50 of 19 nM. `CCOc1ccc(Cc2ccc(COC(=O)CO)cc2O[C@@H]2O[C@H]([C@@H](C)O)[C@@H](O)[C@H](O)[C@H]2O)cc1` [Example 99, 5-Hydroxyacetyloxymethyl-2-(4-ethoxybenzyl)phenyl 7-deoxy-D-glycero-β-D-gluco-heptopyranoside] returned a concentration for half-maximal inhibition (IC50) of 272 nM.
